The values below come from ChEMBL document CHEMBL3745633, “Synthesis of the biotinylated anti-HIV compound BMMP and the target identification study” (Bioorg Med Chem Lett, 2016).

In assay [1] the test system is Human immunodeficiency virus 1. As to the kind of experiment: Antiviral activity against HIV-1 NL4-3 infected in human M8166 cells assessed as inhibition of viral replication at 20 uM after 5 days by p24 ELISA. In kind it is functional, organism-based. On the technique in general: An ELISA detects its analyte on a solid surface through an enzyme-linked reagent.
The subject of assay [2] is HEK-293T. As to the kind of experiment: Binding affinity to HIV-1 NL4-3 capsid protein expressed in HEK293T cells by surface plasmon resonance analysis. The note with it: Human immunodeficiency virus 1. On the technique in general: SPR reads the build-up and loss of mass on a sensor chip optically.
Assay [3] has as its system HEK-293T. As to the kind of experiment: Binding affinity to HIV-1 NL4-3 Pr55Gag expressed in HEK293T cells by surface plasmon resonance analysis. Particulars: Human immunodeficiency virus 1.

Structures are written as SMILES. Activity calls are given as the source filed them. The calls are words filed in the database; no cut-off is given here.

For `NCCCCCCc1ccnc(SCc2nc3ccccc3s2)n1`, in assay [1], the inhibition entry was “Active”.
With `COC(=O)CCCC[C@@H]1SC[C@@H]2NC(=O)N[C@@H]21`, in assay [1], the inhibition entry is “inactive”.
Consider `Cc1ccnc(SCc2nc3ccccc3s2)n1`, for which the inhibition result in assay [1] is “Active”.
For the compound `O=C(CCCC[C@@H]1SC[C@@H]2NC(=O)N[C@@H]21)NCCCCCCc1ccnc(SCc2nc3ccccc3s2)n1`, the result in the assay with HEK-293T [2] and with HEK-293T [3] was inactive. Further, in assay [1], the inhibition result is “Active”.
